Data on eleven compounds can be found in EP3569594A1, “METHOD FOR THE PREPARATION OF SUBSTITUTED PYRAZINES” (Universität Graz, priority 2018, dated 2019).

Where only a bound is given, the exact number is not on record here.

In assay [1] the target is T1, OYE2 (Saccharomyces cerevisiae, UniProt Q03558).
T1 construct: made in house; host or cells: E. coli BL21(DE3)
The experiment in a line: Reactivity screening of oximes with purified ene-reductase, conversion by GC-FID. The following applies: OYE2 100 µg/ml, 10 mM Oxim, 0,5 mM NAD(P)H/H+, Glucose/GDH, Tris-HCl pH 7,5, 30 °C, 24 h. It is filed as biochemical. The source says:
(§1) Die En-Reduktase ist zwar nicht speziell eingeschränkt, ist aber vorzugsweise aus der OYE-Familie, d.h. der Familie der "Old Yellow Enzymes" ausgewählt, da Vertreter dieser Gruppe von Enzymen allesamt gute Ergebnisse geliefert haben. Noch bevorzugter ist die ER aus den folgenden bereits getesteten Enzymen ausgewählt: • OYE1 von Saccharomyces pastorianus, • OYE2 von Saccharomyces cerevisiae, • OYE3 von Saccharomyces cerevisiae, • 12-Oxophytodienoat-Reduktase 3 (OPR3) von Arabidopsis thaliana, • xenobiotischer Reduktase A (XenA) von Pseudomonas putida II-B und • En-Reduktase von Ferrovum sp. JA12 (FOYE).
(§2) Plasmide, die jeweils ein für eine der En-Reduktasen OYE1, OYE2, OYE3, OPR3, XenA und FOYE kodierendes Gen enthielten, wurden in chemisch kompetente E. coli BL21(DE3)-Zellen transformiert. Die sechs Über-Nacht-Kulturen wurden in LB-Medium, das mit 50 µg/ml Kanamycin (für OYE1-3 und FOYE) oder 100 µg/ml Ampicillin (für OPR3 und XenA) ergänzt worden war, bei 30 °C und 120 U/min kultiviert. Hauptkulturen (1 l LB-Medium, 50 µg/ml Kanamycin oder 100 µg/ml Ampicillin) wurden mit je 3 ml der entsprechenden Über-Nacht-Kultur inokuliert und bei 37 °C, 120 U/min geschüttelt, bis die OD600 0,6 bis 0,8 erreichte. Die Proteinproduktion wurde durch Zusatz von Isopropyl-β-D-thiogalactopyranosid (IPTG) (0,2 mM für OYE1-3 und XenA, 1 mM für OPR3 und 0,05 mM für FOYE) induziert und bei 20 °C über Nacht (für OYE1-3 und FOYE) oder bei 37 °C 4 h lang (für XenA und OPR3) geschüttelt. Die Zellen wurden durch Zentrifugation (5000 U/min, 4 °C, 20 min) geerntet, das Pellet wurde mit 100 mM Tris-HCI-Puffer pH 7,5 (25 ml) gewaschen und bei -20 °C gelagert.
(§3) Als Modellreaktion für die Feststellung der Enzymaktivität wurde im Handel erhältlicher 2-Oximinoacetessigsäureethylester (1a) mit den sechs in den Synthesebeispielen 1 bis 6 hergestellten En-Reduktasen (ER) in analytischem Maßstab umgesetzt. Dazu wurden in ein 2-ml-Eppendorf-Röhrchen 100 µg/ml der jeweiligen gereinigten En-Reduktase, 0,5 mM NAD(P)H/H^+, 50 mM Glucose und 1 mg/ml GDH in 100 mM Tris-HCl-Puffer, pH 7,5, gelöst. Die Reaktionen wurden durch Zugabe von 10 mM Oxim (1a) (aus einer 200 mM Stammlösung in DMSO) auf ein Endvolumen von 500 µl gestartet und 24 h lang bei 30 °C, 120 U/min geschüttelt. Danach wurden die Reaktionsgemische jeweils mit 1 ml Chloroform extrahiert, die organische Phase wurde über MgSO4 getrocknet und mittels GC-FID analysiert und der Umsatz anhand der Peakflächenprozentsätze ermittelt. Wie aus nachstehender Tabelle 1 hervorgeht, wurde nach 24 h in allen sechs Fällen praktisch vollständiger Umsatz festgestellt. Tabelle 1: Anfängliches Reaktivitätsscreening mit Modelloxim (1a)
(§4) Zur Ermittlung, welche anderen Derivate der 2-Oximinoacetessigsäure mittels enzymatischer Katalyse durch die sechs in den Synthesebeispielen 1 bis 6 hergestellten En-Reduktasen (1) zu Pyrazindicarbonsäure-Derivaten (2) umsetzbar sein würden, wurden die für die Beispiele 1 bis 6 beschriebene Vorgangsweise unter Verwendung der in den Synthesebeispielen 7 bis 13 hergestellten Oxime (1b) bis (1h) anstelle von (1a) wiederholt. Überraschenderweise wurde in sämtlichen Fällen nach 24 h praktisch vollständiger Umsatz beobachtet, wie aus nachstehender Tabelle 2 hervorgeht. Tabelle 2: Reaktivitätsscreening mit den Oximen (1b) bis (1h)

Assay [2] concerns the target T2, OYE3 (Saccharomyces cerevisiae, UniProt P41816).
T2 construct: made in house; host or cells: E. coli BL21(DE3)
Described as above. It counts as biochemical. The following applies: OYE3 100 µg/ml, 10 mM Oxim, 0,5 mM NAD(P)H/H+, Glucose/GDH, Tris-HCl pH 7,5, 30 °C, 24 h.
Source text: as §1, §2, §3, §4

In assay [3] the target is T3, OYE1 (Saccharomyces pastorianus, UniProt Q02899).
T3 construct: made in house; host or cells: E. coli BL21(DE3)
The description is as above. As to conditions: OYE1 100 µg/ml, 10 mM Oxim, 0,5 mM NAD(P)H/H+, Glucose/GDH, Tris-HCl pH 7,5, 30 °C, 24 h. It is filed as biochemical.
Source text: as §1, §2, §3, §4

Assay [4] has as its target T4, OPR3 (Arabidopsis thaliana, UniProt Q9FUP0).
T4 construct: made in house; host or cells: E. coli BL21(DE3)
The assay is described as above. As to conditions: OPR3 100 µg/ml, 10 mM Oxim, 0,5 mM NAD(P)H/H+, Glucose/GDH, Tris-HCl pH 7,5, 30 °C, 24 h. It counts as biochemical.
Source text: as §1, §2, §3, §4

The subject of assay [5] is FOYE. The description is as above. It counts as biochemical, Ferrovum sp. JA12. The following applies: FOYE 100 µg/ml, 10 mM Oxim, 0,5 mM NAD(P)H/H+, Glucose/GDH, Tris-HCl pH 7,5, 30 °C, 24 h.
Source text: as §1, §2, §3, §4

Assay [6] deals with XenA. The description is as above. It is filed as biochemical, Pseudomonas putida II-B. As to conditions: XenA 100 µg/ml, 10 mM Oxim, 0,5 mM NAD(P)H/H+, Glucose/GDH, Tris-HCl pH 7,5, 30 °C, 24 h.
Source text: as §1, §2, §3, §4

In assay [7] the test system is FOYE. Put plainly: Photometric activity measurement by consumption of coenzyme NAD(P)H/H+ with diketone oximes. It counts as biochemical, Ferrovum sp. JA12. The source says:
Zur Untersuchung, ob die enzymatische Katalyse auch mit 2-Oximino-1,3-diketonen anstelle der 2-Oximinoacetessigsäure-Derivate als Substrate abläuft, d.h. ob das Carbonsäure-Ende des Substratmoleküls für die Reaktion erforderlich ist, wurden die drei nachstehend dargestellten Diketon-Oxime (3a), (3b) und (3c) [drawing 12] auf analoge Weise zu den obigen Synthesebeispielen 7 bis 13 aus den entsprechenden Diketon-Ausgangsprodukten (Acetylaceton, ω-Acetylacetophenon und 1-Isopropylacetylaceton) hergestellt und auf analoge Weise zu den obigen Beispielen 7 und 8 mit FOYE als En-Reduktase umgesetzt.
Während der Reaktionen wurden photometrische Aktivitätsmessungen durchgeführt, bei denen die Enzymaktivität anhand des Verbrauchs des Coenzyms NAD(P)H/H^+ bestimmt wurde. Die Ergebnisse sind in nachstehender Tabelle 3 angeführt. Tabelle 3: Reaktivitätsscreening mit den Diketon-Oximen (3a) bis (3c)

T1 sequence (Q03558 whole entry): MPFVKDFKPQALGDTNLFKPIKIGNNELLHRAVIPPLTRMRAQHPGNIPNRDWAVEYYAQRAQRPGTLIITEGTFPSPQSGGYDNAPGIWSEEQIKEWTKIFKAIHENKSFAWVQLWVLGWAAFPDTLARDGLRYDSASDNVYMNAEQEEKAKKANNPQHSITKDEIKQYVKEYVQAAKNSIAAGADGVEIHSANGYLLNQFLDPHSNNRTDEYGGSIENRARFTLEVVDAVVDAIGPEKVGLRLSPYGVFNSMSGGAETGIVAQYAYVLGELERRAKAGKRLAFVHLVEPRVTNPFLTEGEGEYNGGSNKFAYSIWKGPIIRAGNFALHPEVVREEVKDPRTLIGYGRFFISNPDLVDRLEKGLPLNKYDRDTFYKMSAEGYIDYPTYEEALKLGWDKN
T3 sequence (Q02899 whole entry): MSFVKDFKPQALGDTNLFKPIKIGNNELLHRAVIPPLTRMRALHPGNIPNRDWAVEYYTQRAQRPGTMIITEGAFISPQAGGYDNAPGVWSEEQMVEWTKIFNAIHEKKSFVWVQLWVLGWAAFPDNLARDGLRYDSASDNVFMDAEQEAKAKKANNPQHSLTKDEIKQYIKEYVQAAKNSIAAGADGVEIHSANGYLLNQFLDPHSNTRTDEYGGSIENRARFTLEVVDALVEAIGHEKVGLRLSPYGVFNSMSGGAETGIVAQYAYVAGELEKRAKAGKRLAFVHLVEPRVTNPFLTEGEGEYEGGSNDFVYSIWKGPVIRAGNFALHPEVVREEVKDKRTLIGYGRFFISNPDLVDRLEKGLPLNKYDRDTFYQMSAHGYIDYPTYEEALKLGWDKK
T4 sequence (Q9FUP0 whole entry): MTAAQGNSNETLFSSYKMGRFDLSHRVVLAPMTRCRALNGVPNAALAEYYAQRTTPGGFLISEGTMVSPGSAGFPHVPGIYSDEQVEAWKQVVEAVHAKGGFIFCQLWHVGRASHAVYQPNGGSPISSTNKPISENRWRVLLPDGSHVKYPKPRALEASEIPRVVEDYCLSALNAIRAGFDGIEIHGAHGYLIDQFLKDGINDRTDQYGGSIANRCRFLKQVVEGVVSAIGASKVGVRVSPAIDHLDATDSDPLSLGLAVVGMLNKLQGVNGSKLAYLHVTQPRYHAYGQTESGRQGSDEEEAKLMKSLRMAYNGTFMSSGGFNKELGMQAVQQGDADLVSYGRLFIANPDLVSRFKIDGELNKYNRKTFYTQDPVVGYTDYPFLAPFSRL
T2 sequence (P41816 whole entry): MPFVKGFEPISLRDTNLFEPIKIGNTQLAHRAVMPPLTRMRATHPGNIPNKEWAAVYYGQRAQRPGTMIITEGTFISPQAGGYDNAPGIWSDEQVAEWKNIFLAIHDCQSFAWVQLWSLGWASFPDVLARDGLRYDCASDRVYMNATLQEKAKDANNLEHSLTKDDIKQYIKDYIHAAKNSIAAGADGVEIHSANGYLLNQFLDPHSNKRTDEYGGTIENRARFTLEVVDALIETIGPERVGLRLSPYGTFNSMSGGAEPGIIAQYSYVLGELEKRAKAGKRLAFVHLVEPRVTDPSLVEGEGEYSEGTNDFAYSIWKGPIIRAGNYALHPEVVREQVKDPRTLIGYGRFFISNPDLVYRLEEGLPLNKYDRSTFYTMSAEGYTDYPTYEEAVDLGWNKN

Turning to `CCOC(=O)C(=NO)C(=O)CC` [(1h), 4-Methyl-2-oximinoacetessigsäureethylester], the Umsatz in assay [1], in assay [2], in assay [3], in assay [4], in assay [5] and in assay [6] was above 99% throughout.
Take `CCOC(=O)C(=NO)C(C)=O` [(1a), 2-Oximinoacetessigsäureethylester, reference compound]: the Umsatz in assay [1], in assay [2], in assay [3], in assay [4], in assay [5] and in assay [6] was above 99% throughout.
Turning to `CCCCCCCOC(=O)C(=NO)C(C)=O` [(1f), 2-Oximinoacetessigsäureheptylester], the Umsatz in assay [1], in assay [2], in assay [3], in assay [4], in assay [5] and in assay [6] was above 99% throughout.
Take `CCCCOC(=O)C(=NO)C(C)=O` [(1d), 2-Oximinoacetessigsäurebutylester]: the Umsatz in assay [1], in assay [2], in assay [3], in assay [4], in assay [5] and in assay [6] was above 99% each time.
Regarding `CC(=O)C(=NO)C(=O)Nc1ccccc1` [(1b), 2-Oximinoacetessigsäure-N-phenylamid], the Umsatz in assay [1], in assay [2], in assay [3], in assay [4], in assay [5] and in assay [6] was above 99% each time.
On to `COCCOC(=O)C(=NO)C(C)=O` [(1g), 2-Oximinoacetessigsäure-2-methoxyethylester], for which the Umsatz in assay [1], in assay [2], in assay [3], in assay [4], in assay [5] and in assay [6] was above 99% each time.
For `CC(=O)C(=NO)C(=O)OCc1ccccc1` [(1e), 2-Oximinoacetessigsäurebenzylester], the Umsatz in assay [1], in assay [2], in assay [3], in assay [4], in assay [5] and in assay [6] was above 99% in each case.
Regarding `CC(=O)C(=NO)C(=O)c1ccccc1` [Oxim 3b, α-Acetyl-α-oximinoacetophenon], the Aktivität in assay [7] is on record as 18 U/mg.
Still for that read-out and setting: with `CC(=O)C(=NO)C(=O)CC(C)C` [Oxim 3c, 1-Isopropyl-3-oximinoacetylaceton] the figure was 23 U/mg.
Still for that read-out and setting: with `CC(=O)C(=NO)C(C)=O` [Oxim 3a, 3-Oximinoacetylaceton] the figure was 6 U/mg.
As for `C=CCOC(=O)C(=NO)C(C)=O` [(1c), 2-Oximinoacetessigsäureallylester], the Umsatz in assay [1], in assay [2], in assay [3], in assay [4], in assay [5] and in assay [6] was above 99% in each case.
